# Assays:
# [1] = tested on: rotarod deficit; assay: Rotarod deficit in mice; type: in vivo; conditions: for Rotarod Deficit TD50: mice, i.p. 30 min before testing
# Description: In order to examine the effects of the compounds of the present invention on the central nervous system and behavior, a rotarod test was performed as follows.
# Mice were placed on a plastic rod having a node 1 inch in diameter (Ugo-Basile, Milano, Italy), followed by rotating the rod at a speed of 6 rpm. 30, 60, 90 and 120 min after the administration of test compounds, the mice that fell from the rotating rod within 1 min were counted to determine rotarod deficits (%) (Dunham et al., 1957).
# [2] = tested on: retention of a previously learned task; conditions: rats, literature; cited from earlier work
# [3] = tested on: extracellular glutamate levels in the frontal cortex and dorsal hippocampus; conditions: literature; cited from earlier work
# [4] = tested on: rat maximal electroseizure threshold; conditions: literature; cited from earlier work
# [5] = tested on: yawning, stretching, and chewing; conditions: rats, literature; cited from earlier work
# [6] = tested on: food intake; conditions: literature; cited from earlier work
# [7] = target: 5-HT6 receptors (Homo sapiens, UniProt P50406); conditions: human 5-HT6 receptors, literature; cited from earlier work
# Sequence of 5-HT6 receptors (P50406 whole entry): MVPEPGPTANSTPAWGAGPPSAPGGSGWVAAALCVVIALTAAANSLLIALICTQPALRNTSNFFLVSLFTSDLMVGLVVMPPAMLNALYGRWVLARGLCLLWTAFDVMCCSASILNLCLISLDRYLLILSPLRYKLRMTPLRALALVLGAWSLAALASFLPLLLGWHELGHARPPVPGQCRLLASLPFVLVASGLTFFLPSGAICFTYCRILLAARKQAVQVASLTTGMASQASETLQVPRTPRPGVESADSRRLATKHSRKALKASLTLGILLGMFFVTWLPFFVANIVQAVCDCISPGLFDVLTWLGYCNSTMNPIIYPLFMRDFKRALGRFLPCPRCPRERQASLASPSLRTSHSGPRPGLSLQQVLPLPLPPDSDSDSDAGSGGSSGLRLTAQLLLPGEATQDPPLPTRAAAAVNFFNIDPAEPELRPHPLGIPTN
# [8] = target: T1, D2 (hD2L receptor) (Homo sapiens, UniProt P14416); assay: Radioligand binding assay, dopamine D2; conditions: [3H] spiperone 1 nM; read-out: Binding affinity IC50 D2
# T1 construct: purchased BioSignal Packard Inc., Montreal, Canada
# T1 sequence (P14416 whole entry): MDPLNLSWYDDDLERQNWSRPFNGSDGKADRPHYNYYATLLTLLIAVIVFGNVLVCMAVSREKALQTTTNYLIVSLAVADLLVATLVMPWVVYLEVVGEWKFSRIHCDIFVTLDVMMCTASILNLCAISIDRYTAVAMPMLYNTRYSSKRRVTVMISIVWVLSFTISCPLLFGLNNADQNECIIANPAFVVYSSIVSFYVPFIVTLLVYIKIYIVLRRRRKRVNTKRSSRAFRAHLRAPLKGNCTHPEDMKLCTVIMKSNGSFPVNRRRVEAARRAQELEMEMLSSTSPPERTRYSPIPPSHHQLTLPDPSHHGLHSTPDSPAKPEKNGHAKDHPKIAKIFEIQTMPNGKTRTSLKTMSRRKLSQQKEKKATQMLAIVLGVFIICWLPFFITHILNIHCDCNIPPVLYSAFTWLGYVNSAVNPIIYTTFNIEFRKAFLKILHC
# Summary of the method: (§1)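 Competition binding used human receptor membranes: hD2L with 1 nM [3H]spiperone, and hD4.2 with 0.06 nM [3H]YM-09151-2 in Tris-HCl pH 7.4 with Mg/EDTA/K/Ca. Nonspecific binding was defined with 10 μM haloperidol for D2 and 10 μM clozapine for D4. IC50 was fitted by nonlinear regression from 7–8 concentrations in duplicate, across three assays.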
# [9] = target: T2, D4 (hD4.2 receptor) (Homo sapiens, UniProt P21917, DEL265-296); assay: Radioligand binding assay, dopamine D4; conditions: [3H] YM-09151-2 0.06 nM; read-out: Binding affinity IC50 D4
# T2 construct: purchased BioSignal Packard Inc., Montreal, Canada
# T2 sequence (P21917 with tags, fused parts or gaps DEL265-296): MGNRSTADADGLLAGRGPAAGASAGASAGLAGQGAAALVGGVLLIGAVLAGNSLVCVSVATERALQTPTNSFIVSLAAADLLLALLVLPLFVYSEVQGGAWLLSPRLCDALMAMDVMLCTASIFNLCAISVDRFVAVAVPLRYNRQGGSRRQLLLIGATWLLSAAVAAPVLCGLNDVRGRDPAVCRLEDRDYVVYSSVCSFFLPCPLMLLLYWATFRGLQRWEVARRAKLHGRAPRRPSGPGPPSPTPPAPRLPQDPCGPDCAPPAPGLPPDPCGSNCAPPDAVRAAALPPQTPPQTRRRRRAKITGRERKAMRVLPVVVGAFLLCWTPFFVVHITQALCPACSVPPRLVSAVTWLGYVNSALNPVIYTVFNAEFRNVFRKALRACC
# Summary of the method: as §1
# [10] = target: T3, HeLa cells transfected with human 5-HT6 receptor (Homo sapiens, UniProt P50406); assay: Serotonin-stimulated cAMP accumulation in HeLa cells (EIA); type: cell-based
# T3 construct: expressed in transfected cells; host or cells: HeLa
# T3 sequence (P50406 whole entry): as the sequence (P50406 whole entry) above
# [11] = tested on: lethality; assay: Lethality (LD50) in mice; type: in vivo; conditions: i.p.
# [12] = target: 5-HT7 (human recombinant receptor, CHO-K1) (Homo sapiens, UniProt P34969); assay: Radioligand binding assay, 5-HT7
# Sequence of 5-HT7 (human recombinant receptor, CHO-K1) (P34969 whole entry): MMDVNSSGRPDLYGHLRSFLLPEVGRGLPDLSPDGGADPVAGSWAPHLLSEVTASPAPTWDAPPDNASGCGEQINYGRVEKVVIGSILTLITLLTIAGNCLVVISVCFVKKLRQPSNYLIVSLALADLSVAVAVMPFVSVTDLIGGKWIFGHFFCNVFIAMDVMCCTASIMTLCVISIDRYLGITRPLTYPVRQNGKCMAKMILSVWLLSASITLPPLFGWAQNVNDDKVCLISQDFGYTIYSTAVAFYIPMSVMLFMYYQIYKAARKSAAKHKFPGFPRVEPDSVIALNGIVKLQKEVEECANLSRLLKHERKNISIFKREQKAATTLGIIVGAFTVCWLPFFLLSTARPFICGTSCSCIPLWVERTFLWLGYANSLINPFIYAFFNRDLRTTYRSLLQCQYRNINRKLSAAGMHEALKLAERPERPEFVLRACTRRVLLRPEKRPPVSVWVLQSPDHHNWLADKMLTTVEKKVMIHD
# [13] = target: T4, 5-HT1a (human recombinant receptor, CHO-K1) (Homo sapiens, UniProt P08908); assay: Radioligand binding assay, 5-HT1a
# T4 sequence (P08908 1-422): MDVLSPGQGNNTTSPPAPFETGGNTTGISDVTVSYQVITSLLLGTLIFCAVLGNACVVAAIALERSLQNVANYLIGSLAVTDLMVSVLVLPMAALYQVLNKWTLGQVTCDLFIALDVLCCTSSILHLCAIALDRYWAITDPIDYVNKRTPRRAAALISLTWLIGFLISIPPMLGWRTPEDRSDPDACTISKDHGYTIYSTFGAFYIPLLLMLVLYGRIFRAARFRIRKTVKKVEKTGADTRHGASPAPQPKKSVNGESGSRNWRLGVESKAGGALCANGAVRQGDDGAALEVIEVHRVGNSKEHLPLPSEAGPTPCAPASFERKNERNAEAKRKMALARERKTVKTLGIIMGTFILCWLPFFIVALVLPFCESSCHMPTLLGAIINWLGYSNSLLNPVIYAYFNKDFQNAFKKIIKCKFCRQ
# [14] = target: 5-HT2a (human recombinant receptor, CHO-K1) (Homo sapiens, UniProt P28223); assay: Radioligand binding assay, 5-HT2a
# Sequence of 5-HT2a (human recombinant receptor, CHO-K1) (P28223 whole entry): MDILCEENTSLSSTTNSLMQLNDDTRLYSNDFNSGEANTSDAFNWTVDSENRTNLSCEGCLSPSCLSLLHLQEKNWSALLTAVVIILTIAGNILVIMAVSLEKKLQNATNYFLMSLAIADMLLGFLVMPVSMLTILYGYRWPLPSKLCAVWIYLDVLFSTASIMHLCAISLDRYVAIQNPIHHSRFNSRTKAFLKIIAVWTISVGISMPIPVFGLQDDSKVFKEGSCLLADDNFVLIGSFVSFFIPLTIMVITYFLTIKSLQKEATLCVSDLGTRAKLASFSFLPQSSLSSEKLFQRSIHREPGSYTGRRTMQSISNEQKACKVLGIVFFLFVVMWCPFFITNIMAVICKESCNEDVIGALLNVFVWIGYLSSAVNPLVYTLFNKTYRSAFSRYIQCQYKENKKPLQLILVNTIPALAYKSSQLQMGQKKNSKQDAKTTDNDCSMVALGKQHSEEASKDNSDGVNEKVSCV
# [15] = target: T5, 5-HT2c (human recombinant receptor, CHO-K1) (Homo sapiens, UniProt P28335); assay: Radioligand binding assay, 5-HT2c
# T5 sequence (P28335 33-458): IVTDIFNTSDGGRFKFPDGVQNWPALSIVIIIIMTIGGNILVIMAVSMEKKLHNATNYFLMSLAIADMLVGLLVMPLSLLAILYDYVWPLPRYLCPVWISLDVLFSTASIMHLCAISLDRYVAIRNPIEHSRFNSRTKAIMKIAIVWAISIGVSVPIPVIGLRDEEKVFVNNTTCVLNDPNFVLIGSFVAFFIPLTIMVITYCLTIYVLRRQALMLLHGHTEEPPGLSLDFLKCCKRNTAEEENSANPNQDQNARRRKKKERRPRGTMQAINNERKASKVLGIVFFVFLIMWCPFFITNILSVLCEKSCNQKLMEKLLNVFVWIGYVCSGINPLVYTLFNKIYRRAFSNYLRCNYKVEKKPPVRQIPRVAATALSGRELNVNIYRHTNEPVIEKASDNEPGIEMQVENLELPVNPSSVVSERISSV
# [16] = target: D1 receptor (Homo sapiens, UniProt P21728); assay: Radioligand binding assay, dopamine D1
# Sequence of D1 receptor (P21728 whole entry): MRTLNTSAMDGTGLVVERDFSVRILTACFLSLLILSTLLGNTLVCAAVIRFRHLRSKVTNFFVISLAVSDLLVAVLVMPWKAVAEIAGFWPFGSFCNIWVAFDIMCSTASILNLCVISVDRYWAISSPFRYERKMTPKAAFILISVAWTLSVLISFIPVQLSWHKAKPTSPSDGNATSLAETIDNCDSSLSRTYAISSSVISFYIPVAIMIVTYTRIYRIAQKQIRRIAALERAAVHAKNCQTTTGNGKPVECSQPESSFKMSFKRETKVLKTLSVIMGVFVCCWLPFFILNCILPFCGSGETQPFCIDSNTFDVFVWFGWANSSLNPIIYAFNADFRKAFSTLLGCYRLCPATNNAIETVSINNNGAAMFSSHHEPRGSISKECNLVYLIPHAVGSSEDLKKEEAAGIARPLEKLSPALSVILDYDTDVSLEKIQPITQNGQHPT
# [17] = target: D3 (hD3 receptor) (Homo sapiens, UniProt P35462); assay: Radioligand binding assay, dopamine D3
# Sequence of D3 (hD3 receptor) (P35462 whole entry): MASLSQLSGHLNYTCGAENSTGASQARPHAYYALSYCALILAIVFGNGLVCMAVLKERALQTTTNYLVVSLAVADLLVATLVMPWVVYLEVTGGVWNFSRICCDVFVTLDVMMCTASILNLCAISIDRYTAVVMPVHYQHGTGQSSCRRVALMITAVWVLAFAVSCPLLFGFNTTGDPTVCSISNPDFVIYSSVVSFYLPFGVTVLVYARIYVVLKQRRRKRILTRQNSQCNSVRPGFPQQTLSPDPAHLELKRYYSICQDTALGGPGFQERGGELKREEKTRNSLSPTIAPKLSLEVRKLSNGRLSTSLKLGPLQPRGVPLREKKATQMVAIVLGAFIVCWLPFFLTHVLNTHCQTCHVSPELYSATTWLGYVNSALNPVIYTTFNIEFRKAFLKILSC
# [18] = tested on: apomorphine-induced PPI disruption; assay: Apomorphine-induced PPI disruption in rat
# [19] = target: human serotonin 5-HT6 receptor (Homo sapiens, UniProt P50406); assay: [3H]LSD binding assay for cloned 5-HT6 receptors
# Sequence of human serotonin 5-HT6 receptor (P50406 whole entry): as the sequence (P50406 whole entry) above
compound,measurement,setting,value
"COc1ccc(NS(=O)(=O)c2sc3ccc(Cl)cc3c2C)cc1N1CCNCC1 [SB-271046, reference compound]",Rotarod Deficit TD50,[1],"112 mg/kg, ip"
same,retention of a previously learned task in water maze,[2],significant improvement in retention of a previously learned task
same,extracellular glutamate levels in the frontal cortex and dorsal hippocampus,[3],increased extracellular glutamate levels in the frontal cortex and dorsal hippocampus by several times
same,anticonvulsant activity,[4],possess anticonvulsant activity
CNc1cc(NS(=O)(=O)c2ccc(N)cc2)nc(NC)n1 [Ro 04-6790],anticonvulsant activity,[4],possess anticonvulsant activity
same,"induction of yawning, stretching, and chewing behavior",[5],capable of inducing this same effect
same,food intake by rats,[6],decreased food intake
COc1ccc2c(c1)c(CCN(C)C)cn2S(=O)(=O)c1ccccc1 [MS-245],"pA2, antagonist",[7],8.88
"C[C@H](c1ccccc1)n1c(=O)c2c(N3CCN(C)CC3)cc(Cl)cc2n(Cc2ccccc2)c1=O [Example 40, 1-benzyl-7-chloro-5-(4-methyl-piperazin-1yl)-3-[(R)-1-phenyl-ethyl]-1H-quinazoline-2,4-dione]",IC50,[8],> 10000 nM
same,IC50,[9],> 10000 nM
same,cytotoxicity,[10],did not show any cytotoxicity at all
same,effect on serotonin-stimulated cAMP accumulation (in words),"[10]; HeLa cells, FIG. 1",inhibited serotonin-stimulated cAMP accumulation in a dose-dependent manner
same,inhibition at 0.001 µM,"[10]; HeLa, read-out: inhibition of cAMP increase induced by 0.3 μM serotonin, compound 0.001 μM",0%
same,inhibition at 0.01 µM,"[10]; HeLa, read-out: inhibition of cAMP increase induced by 0.3 μM serotonin, compound 0.01 μM",35%
same,inhibition at 0.1 µM,"[10]; HeLa, read-out: inhibition of cAMP increase induced by 0.3 μM serotonin, compound 0.1 μM",95%
same,inhibition at 1 µM,"[10]; HeLa, read-out: inhibition of cAMP increase induced by 0.3 μM serotonin, compound 1 μM",100%
same,inhibition at 10 µM,"[10]; HeLa, read-out: inhibition of cAMP increase induced by 0.3 μM serotonin, compound 10 μM",100%
same,Rotarod Deficit TD50,[1],"139 mg/kg, ip"
same,rotarod dysfunction,"[1]; mouse, in vivo, ip, 150 mg/kg, 120 min",75%
same,Lethal Degrees LD50,[11],">300 mg/kg, ip"
same,IC50,[12],7420 nM
same,IC50,[13],4350 nM
same,IC50,[14],266 nM
same,IC50,[15],477 nM
same,IC50,[16],2710 nM
same,IC50,[17],983 nM
same,effect of compound alone on PPI versus vehicle control,"[18]; rat, 2.5, 5, 10 and 20 mg/kg i.p. alone",no significant effects
same,mean startle amplitude versus apomorphine positive control,"[18]; rat, given 30 min before apomorphine",did not induce significant difference in mean startle amplitude
same,effect of pretreatment on apomorphine-induced PPI disruption,"[18]; rat, i.p. 30 min before apomorphine (2 mg/kg, i.p.), 2.5, 5, 10 and 20 mg/kg","found to inhibit apomorphine (2 mg/kg, i.p.)-induced PPI disruption"
same,IC50,[19],1.6 nM
